“Also recorded” adds a separate entry of the source. Structures can show the parent of a compound that is named as a salt.
System: adult male Wistar rats
Assay: Behavioural despair test (BDT)
Format: in vivo, rat
Experimental: The anti-depressant effects of an algal extract according to the invention (AE), administered orally as a preventive treatment with 3 doses (10, 20 and 40 mg/kg/d) were evaluated in adult male Wistar rats in the behavioural despair test (BDT).
The extract was daily administered as a semi-chronic treatment for 14 days. The effects of the extract were evaluated in the BDT on groups of 12 rats as compared with a control batch treated with the carrier (spring water) and a reference batch treated with Imipramine at the dose of 10 mg/kg/d.
Sixty male Wistar rats (Charles River Laboratories, France) weighing from 200-225 g were used. Upon receiving them, the rats were marked and distributed in groups of 4 in polycarbonate cages of the F type (48×27×20 cm, U.A.R., 91-Epinay-Sur-Orge, France). The animals were housed in an air-conditioned animal housing facility, at a temperature of 22±2° C. and a relative humidity of 50±20%. The rats had standard feed 2016 (Harlan, Gannat, France) and drink ad libitum. They were subject to a reverse light-darkness cycle of 12 hours.
After getting used to the conditions of the laboratory for one week, the rats were weighed and randomized according to their weight in 5 treatment groups (n=12/group).
The experimental devices consisted in Plexiglas cylinders with a height of 50 cm and a diameter of 20 cm filled with water at 25° C. up to a height of 30 cm.
After 13 days of daily treatment with the products to be tested, the rats were placed at D14 in the devices for a period of 15 minutes in order to evaluate the immobility time of each animal. Immediately after this first test, the rats received their 14th treatment.
At D15, the rats received two treatments: the first, 5 hours before the test and the second 1 hour before the test. This procedure is usually used in the literature for testing the efficiency of a product against depression. The test was conducted under the same conditions as the day before for a period of 5 minutes.
The recorded immobility duration during the first 5 minutes of both tests (at D14 and D15) reflects the capacity of the animal of resigning itself when it is confronted with a situation from which it cannot escape. This resignation behaviour is assimilated with depression.
The product is an AE (algal extract) as a powder representing a freeze-dried and crushed concentrated fraction of a water-soluble algal extract prepared according to Example no. 1. The extract to be tested was dissolved in spring water and was administered to the rats orally at one of the 3 tested doses for 15 successive days with an administration volume of 5 ml/kg. The animals were weighed every two or three days in order to adapt their specific treatments to their weight. Their food and water intakes were noted every two or three days during the whole duration of the study.
The animals of the Reference group receive daily 10 mg/kg/d of Imipramine hydrochloride (Sigma Aldrich) dissolved in spring water with an administration volume of 5 ml/kg.
ANOVA in parametric mode was applied, followed, in the case of heterogeneity, by comparisons by means of the non-paired t-test for comparing the treated groups with the Carrier group and the Reference group.
Paired ANOVA was used, followed, in the case of heterogeneity, by comparisons with the paired t-test for two by two comparisons of repeated measurements of BDT in each of the groups.

## CN(C)CCCN1c2ccccc2CCc2ccccc21 [Imipramine, Imipramine hydrochloride]
10 mg/kg/d
  immobility time at D15 compared with the Carrier (in words): significantly shorter
10 mg/kg/d orally, 5 minutes test, n = 12
  Immobility duration in the behavioural despair test at D15 (Average ± ESM): 3.8 ± 1.0 s
10 mg/kg/d orally, first 5 minutes, n = 12
  Immobility duration in the behavioural despair pre-test at D14 (Average ± SME): 16.3 ± 4.6 s
10 mg/kg, hydrochloride
  change of immobility time between D14 and D15 (in words): significantly decrease; also recorded: significantly reduced
Imipramine 10 mg/kg, AE at the three tested doses (10, 20, 40 mg/kg)
  immobility duration at D14: difference between Carrier, Imipramine and AE groups: no significant difference

Source: patent publication US11633443B2, “Algal extract comprising sulphated and non-sulphated polyanionic polysaccharides and uses thereof” (Amadeite, priority 2012, dated 2023)
